Patent US20220298222A1, “COMBINATION THERAPY OF A T CELL THERAPY AND AN ENHANCER OF ZESTE HOMOLOG 2 (EZH2) INHIBITOR AND RELATED METHODS” (Juno Therapeutics, Inc., priority 2019, published 2022)

Key:
[1] = test system: GCB cell lines (WSU-DLCL2, Farage, KARPAS-422, and SU-DHL-5); assay: Cell viability by ATP luminescence-based assay, GCB cell lines; conditions: 6 days; 1.0 μM EPZ-6438, 0.1 μM or 1.0 μM CPI-1205; mutant and wild type GCB cell lines
Method: (§1) Cell viability was determined based on the amount of ATP quantified by a luminescence-based assay.

[2] = test system: ABC cell lines (SU-DHL-2 and OCI-LY3); assay: Cell viability by ATP luminescence-based assay, ABC cell lines; conditions: 6 days, 1.0 μM EPZ-6438, 0.1 μM or 1.0 μM CPI-1205, wild type EZH2
Method: as §1

[3] = test system: H3K27Me3 in GCB (WSU-DLCL2, Farage, KARPAS-422, SU-DHL-5) and ABC (SU-DHL-2, OCI-LY3) DLBCL cell lines; assay: H3K27Me3 levels by Western blot in GCB and ABC DLBCL cell lines, two EZH2 inhibitors; type: cell-based; conditions: 6 days; 0.1 or 1.0 μM; all GCB and ABC cell lines tested
[4] = cited from earlier work

SMILES | cell viability (ATP) [1] | cell viability (ATP) [2] | H3K27Me3 levels (Western blot) [3] | recommended phase II dose ([4]; twice daily (BID) or three times daily (TID) for 28-day cycles, subjects with R/R B-cell non-Hodgkin lymphoma or an advanced solid tumor) [mg] | maximum tolerated dose (MTD) ([4]; twice daily, human subjects, R/R B-cell lymphoma, 28-day cycles) [milligrams]
COc1cc(C)[nH]c(=O)c1CNC(=O)c1c(C)n([C@H](C)C2CCN(CC(F)(F)F)CC2)c2ccccc12 [CPI-1205] | decreased cell viability | resistant | decreased H2K27Me3 levels | – | –
CCN(c1cc(-c2ccc(CN3CCOCC3)cc2)cc(C(=O)NCc2c(C)cc(C)[nH]c2=O)c1C)C1CCOCC1 [tazemetostat] | – | – | – | 800 | 800
